Measurements reported in BindingDB's records for patent US20240293587 (Technische University Munchen, 2024).
pIC50: −log10 of the molar value. Starred links: 1 amine or outer side, 2 acyl side, 3 side chain; linkers in the order of their positions; H or OH if unused. Non-standard residues stand in square brackets, D forms with d. Residues, ends and D or L forms follow the SMILES beside them. Groups on a side chain read outwards from the residue. *: point of attachment. dAla(N-(6-guanidinohexyl)) = C[C@@H](NCCCCCCNC(=N)N)C(=O)O; X1 = C[C@H](C(=O)[*:2])N(CCCCCCNC(=N)NCCCCCCN[*:3])[*:1]; Propanoyl(3-PO3H2) = O=C(CCP(=O)(O)O)*; 2Nal = N[C@@H](Cc1ccc2ccccc2c1)C(=O)O; AEEA = NCCOCCOCC(=O)O; Ahx = NCCCCCC(=O)O

target: C-X-C chemokine receptor type 4 (Homo sapiens, UniProt P61073); assay: Competition Binding Assay
Method: (§1) For IC50 determination using Jurkat or Eμ-Myc1080 cells, samples containing 2×10^5 cells (or 4×10^5 cells; exact cell number used in the respective evaluations is given in the results section) in Hank's balanced salt solution (HBSS)/1% Bovine Serum Albumin (BSA) were incubated with 100.000 cpm of the respective radioligand (approx. 0.1 nM) in the presence of increasing concentrations (10−11 to 10−5 M) of the respective peptide of interest (n=3 per concentration). The total sample volume was 250 μL. After incubation at room temperature (RT) for 120 min with gentle agitation (200 mot/min), the tubes were centrifuged (5 min, 450g, Megafuge 1.0, Heraeus Thermo Scientific) and the supernatant was carefully removed. After washing twice with 400 μL of cold HBSS, the amount of cell-bound radioligand was quantified using a […]-counter.[0403]In the case of the adherent C6 glioma cells, cells were harvested using Trypsin/EDTA (0.05 % and 0.02%) in PBS one day prior to the experiment, centrifuged and resuspended with culture medium to a concentration of app. 150.000 cells/mL. The suspension was transferred into PLL-coated twenty-four-well plates (1 mL/well, Greiner, Solingen. Germany) and placed in the incubator overnight. On the day of the experiment, the culture medium was removed and the cells were washed with 250 μL of HBSS before being left to equilibrate in 200 μL of HBSS (1% BSA) at 37° C. for a minimum of 15 min before the experiment. Then, cells were incubated with 100.000 cpm of the respective radioligand (approx. 0.1 nM) in the presence of increasing concentrations (10−11 to 10−5 M) of the respective compound of interest (n=3 per concentration). The total sample volume was 250 μL. After incubation at room temperature (RT) for 120 min, the supernatant was removed and cells were washed twice with 200 μL of cold HBSS. Then, cells were lysed using 250 μL of 1 N NaOH, the lysate was transferred to vials and combined with 250 μL of HBSS used for rinsing the wells. Quantification of the amount of free and bound activity was performed in a […]-counter.

Chain of C-X-C chemokine receptor type 4 (Homo sapiens, UniProt P61073) (P61073 whole entry): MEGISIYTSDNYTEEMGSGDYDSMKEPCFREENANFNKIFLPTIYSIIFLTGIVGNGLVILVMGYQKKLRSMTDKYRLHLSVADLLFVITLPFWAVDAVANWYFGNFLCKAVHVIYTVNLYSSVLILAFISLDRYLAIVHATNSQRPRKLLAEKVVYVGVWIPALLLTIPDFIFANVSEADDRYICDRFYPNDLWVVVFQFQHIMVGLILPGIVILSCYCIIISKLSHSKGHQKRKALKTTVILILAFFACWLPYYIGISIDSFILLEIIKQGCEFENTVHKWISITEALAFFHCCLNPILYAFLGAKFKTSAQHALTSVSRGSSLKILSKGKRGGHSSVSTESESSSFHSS

Row | pIC50 | SMILES
1 | 7.24 | CC(=O)NCCCCCCNC(=O)CSC[C@H]1NC(=O)[C@H](Cc2ccc3ccccc3c2)NC(=O)[C@H](CCCNC(=N)N)NC(=O)[C@@H](C)N(CCCCCCNC(=N)N)C(=O)[C@@H](Cc2ccc(O)cc2)NC1=O [US20240293587, Compound Pc2]
2 | 7.88 | CC(=O)NCC(=O)NC(=N)NCCCCCCN1C(=O)[C@@H](Cc2ccc(O)cc2)NC(=O)CNC(=O)[C@H](Cc2ccc3ccccc3c2)NC(=O)[C@H](CCCNC(=N)N)NC(=O)[C@H]1C [US20240293587, Compound P8]
3 | 8.70 | C#CCCC(=O)NC(=N)NCCCCCCN1C(=O)[C@@H](Cc2ccc(O)cc2)NC(=O)CNC(=O)[C@H](Cc2ccc3ccccc3c2)NC(=O)[C@H](CCCNC(=N)N)NC(=O)[C@H]1C [US20240293587, Compound P10]
4 | 8.77 | CC(=O)NCCCNC(=N)NCCCCCCN1C(=O)[C@@H](Cc2ccc(O)cc2)NC(=O)CNC(=O)[C@H](Cc2ccc3ccccc3c2)NC(=O)[C@H](CCCNC(=N)N)NC(=O)[C@H]1C [US20240293587, Compound P2]
5 | 7.11 | C[C@@H]1C(=O)N[C@@H](CCCNC(=N)N)C(=O)N[C@@H](Cc2ccc3ccccc3c2)C(=O)N[C@H](CSCC(=O)NCc2cccc(CNC(=O)CN3CCN(CC(=O)O)CCN(CC(=O)O)CCN(CC(=O)O)CC3)c2)C(=O)N[C@H](Cc2ccc(O)cc2)C(=O)N1CCCCCCNC(=N)N [US20240293587, Compound Pc5a]
6 | 9.10 | C[C@@H]1C(=O)N[C@@H](CCCNC(=N)N)C(=O)N[C@@H](Cc2ccc3ccccc3c2)C(=O)NCC(=O)N[C@H](Cc2ccc(O)cc2)C(=O)N1CCCCCCNC(=N)N [US20240293587, Compound R] (cyclo([dY][dAla(N-(6-guanidinohexyl))]R[2Nal]G))
7 | 8.49 | C#CCCCCNC(=N)NCCCCCCN1C(=O)[C@@H](Cc2ccc(O)cc2)NC(=O)CNC(=O)[C@H](Cc2ccc3ccccc3c2)NC(=O)[C@H](CCCNC(=N)N)NC(=O)[C@H]1C [US20240293587, Compound P6]
8 | 7.21 | CC(=O)N[C@@H](CCCCNC(=O)CSC[C@H]1NC(=O)[C@H](Cc2ccc3ccccc3c2)NC(=O)[C@H](CCCNC(=N)N)NC(=O)[C@@H](C)N(CCCCCCNC(=N)N)C(=O)[C@@H](Cc2ccc(O)cc2)NC1=O)C(N)=O [US20240293587, Compound Pc1]
9 | 7.10 | CC(=O)NCCCCCC(=O)NC(=N)NCCCCCCN1C(=O)[C@@H](Cc2ccc(O)cc2)NC(=O)CNC(=O)[C@H](Cc2ccc3ccccc3c2)NC(=O)[C@H](CCCNC(=N)N)NC(=O)[C@H]1C [US20240293587, Compound P9]
10 | 8.51 | CC(=O)NCCNC(=N)NCCCCCCN1C(=O)[C@@H](Cc2ccc(O)cc2)NC(=O)CNC(=O)[C@H](Cc2ccc3ccccc3c2)NC(=O)[C@H](CCCNC(=N)N)NC(=O)[C@H]1C [US20240293587, Compound P1]
11 | 7.49 | CC(=O)NCCCCCNC(=N)NCCCCCCN1C(=O)[C@@H](Cc2ccc(O)cc2)NC(=O)CNC(=O)[C@H](Cc2ccc3ccccc3c2)NC(=O)[C@H](CCCNC(=N)N)NC(=O)[C@H]1C [US20240293587, Compound P4]
12 | 8.60 | CC(=O)NC(=N)NCCCCCCN1C(=O)[C@@H](Cc2ccc(O)cc2)NC(=O)CNC(=O)[C@H](Cc2ccc3ccccc3c2)NC(=O)[C@H](CCCNC(=N)N)NC(=O)[C@H]1C [US20240293587, Compound P7]
13 | < 6.40 | CC(=O)NCCCCCCSC[C@H]1NC(=O)[C@H](Cc2ccc3ccccc3c2)NC(=O)[C@H](CCCNC(=N)N)NC(=O)[C@@H](C)N(CCCCCCNC(=N)N)C(=O)[C@@H](Cc2ccc(O)cc2)NC1=O [US20240293587, Compound Pc3]
14 | 8.01 | CC(=O)NCCCCCCNC(=N)NCCCCCCN1C(=O)[C@@H](Cc2ccc(O)cc2)NC(=O)CNC(=O)[C@H](Cc2ccc3ccccc3c2)NC(=O)[C@H](CCCNC(=N)N)NC(=O)[C@H]1C [US20240293587, Compound P5]

Row | SMILES | pIC50
15 | C[C@@H]1C(=O)N[C@@H](CCCNC(=N)N)C(=O)N[C@@H](Cc2ccc3ccccc3c2)C(=O)NCC(=O)N[C@H](Cc2ccc(O)cc2)C(=O)N1CCCCCCNC(=N)NCCCCCCNC(=O)COCCOCCNC(=O)COCCOCCNC(=O)CCP(=O)(O)O [US20240293587, Compound P5m] (cyclo([2Nal]G[dY][X1]([AEEA-AEEA-Propanoyl(3-PO3H2)])R)) | 7.28
16 | CC(=O)NCc1ccc(CNC(=O)CSC[C@H]2NC(=O)[C@H](Cc3ccc4ccccc4c3)NC(=O)[C@H](CCCNC(=N)N)NC(=O)[C@@H](C)N(CCCCCCNC(=N)N)C(=O)[C@@H](Cc3ccc(O)cc3)NC2=O)cc1 [US20240293587, Compound Pc4] | 7.28
17 | C[C@@H]1C(=O)N[C@@H](CCCNC(=N)N)C(=O)N[C@@H](Cc2ccc3ccccc3c2)C(=O)NCC(=O)N[C@H](Cc2ccc(O)cc2)C(=O)N1CCCCCCNC(=N)NCCCCCCNC(=O)CCCCCNC(=O)CCCCCNC(=O)CCP(=O)(O)O [US20240293587, Compound P5k] (cyclo([2Nal]G[dY][X1]([Ahx-Ahx-Propanoyl(3-PO3H2)])R)) | 7.05
18 | CC(=O)NCc1cccc(CNC(=O)CSC[C@H]2NC(=O)[C@H](Cc3ccc4ccccc4c3)NC(=O)[C@H](CCCNC(=N)N)NC(=O)[C@@H](C)N(CCCCCCNC(=N)N)C(=O)[C@@H](Cc3ccc(O)cc3)NC2=O)c1 [US20240293587, Compound Pc5] | 7.85

target: C-X-C chemokine receptor type 4 (Mus musculus, UniProt P70658); assay: Competition Binding Assay
Method: as §1

Chain of C-X-C chemokine receptor type 4 (Mus musculus, UniProt P70658) (P70658 whole entry): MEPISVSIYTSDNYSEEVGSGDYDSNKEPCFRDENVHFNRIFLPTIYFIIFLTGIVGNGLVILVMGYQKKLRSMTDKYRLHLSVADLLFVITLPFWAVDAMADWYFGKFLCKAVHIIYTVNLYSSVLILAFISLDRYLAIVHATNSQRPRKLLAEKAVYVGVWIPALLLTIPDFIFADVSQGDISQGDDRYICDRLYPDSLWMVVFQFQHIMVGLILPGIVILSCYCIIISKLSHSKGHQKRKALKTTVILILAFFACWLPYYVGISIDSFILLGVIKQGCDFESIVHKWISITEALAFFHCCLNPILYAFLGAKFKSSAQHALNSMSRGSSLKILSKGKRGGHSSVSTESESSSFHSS

Row | pIC50 | SMILES
19 | 8.26 | C#CCCC(=O)NC(=N)NCCCCCCN1C(=O)[C@@H](Cc2ccc(O)cc2)NC(=O)CNC(=O)[C@H](Cc2ccc3ccccc3c2)NC(=O)[C@H](CCCNC(=N)N)NC(=O)[C@H]1C [US20240293587, Compound P10]
20 | 8.21 | C#CCCCCNC(=N)NCCCCCCN1C(=O)[C@@H](Cc2ccc(O)cc2)NC(=O)CNC(=O)[C@H](Cc2ccc3ccccc3c2)NC(=O)[C@H](CCCNC(=N)N)NC(=O)[C@H]1C [US20240293587, Compound P6]
21 | 8.80 | CC(=O)NC(=N)NCCCCCCN1C(=O)[C@@H](Cc2ccc(O)cc2)NC(=O)CNC(=O)[C@H](Cc2ccc3ccccc3c2)NC(=O)[C@H](CCCNC(=N)N)NC(=O)[C@H]1C [US20240293587, Compound P7]
